Results published in patent publication US5599811A, “Benzothiazine dioxides as endothelin antagonists” (Warner-Lambert Company, priority 1995, dated 1997).

Assays:
recombinant human ETA R = biological target: T1, recombinant human ETA R (Homo sapiens, UniProt P25101); format: binding; conditions: [125I]-ET-1 40 pM, 2 hours at 37° C.; read-out: HERBAA IC50
T1 construct: expressed in transfected cells; host or cells: Ltk- cells
T1 sequence (P25101 21-427): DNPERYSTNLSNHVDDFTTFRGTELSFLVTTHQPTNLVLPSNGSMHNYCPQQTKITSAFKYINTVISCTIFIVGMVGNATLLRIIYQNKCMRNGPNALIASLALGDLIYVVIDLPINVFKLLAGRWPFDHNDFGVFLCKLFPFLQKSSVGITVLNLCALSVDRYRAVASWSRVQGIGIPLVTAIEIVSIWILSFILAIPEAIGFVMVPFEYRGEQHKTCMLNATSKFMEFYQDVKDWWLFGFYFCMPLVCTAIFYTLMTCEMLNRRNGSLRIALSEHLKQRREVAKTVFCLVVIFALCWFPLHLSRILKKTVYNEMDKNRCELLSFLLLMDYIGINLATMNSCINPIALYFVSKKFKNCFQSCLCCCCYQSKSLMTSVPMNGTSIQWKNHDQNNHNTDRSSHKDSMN
Method: (§1) The compounds of Formula I are valuable antagonists of endothelin.
(§2) The following cultured cells were used in binding experiments: rabbit renal artery vascular smooth muscle cells (ERBA-A), Ltk-cells expressing recombinant human ETA R (HERBA-A), and CHO-K1 cells expressing recombinant human ETB R (HERBA-B).
(§3) Membranes were prepared from cultured cells by lysing cells in cold lysis buffer (5 mM HEPES, 2 mM EDTA, pH 7.4) and homogenizing with a Dounce "A" homogenizer. The homogenate was centrifuged at 30,000× g for 20 minutes at 4° C. Membrane pellets were suspended in cold buffer containing 20 mM Tris, 2 mM EDTA, 200 μM Pefabloc, 10 μM phosphoramidon, 10 μM leupeptin, 1 μM pepstatin at pH 7.4 and frozen at -80° C. until use. Membranes were thawed and homogenized with a Brinkmann Polytron then diluted in tissue buffer containing 20 mM Tris, 2 mM EDTA, 200 μM Pefabloc, and 100 μM bacitracin (pH 7.4). Radioligand and competing ligands were prepared in binding buffer containing 20 mM Tris, 2 mM EDTA, and 0.1% BSA.
(§4) Competing binding assays were initiated by combining membranes, [125I]-ET-1 (40 pM) and the competing ligand in a final volume of 250 μL and incubating for 2 hours at 37° C. The assay was terminated by filtration over Whatman GF/B filters which were presoaked with 50 mM Tris, pH 7.4 containing 0.2% BSA and 100 μM bacitracin. Nonspecific binding was defined as binding in the presence of 100 nM ET-1.

recombinant human ETB R = biological target: T2, recombinant human ETB R (Homo sapiens, UniProt P24530); format: binding; conditions: [125I]-ET-1 40 pM, 2 hours at 37° C.; read-out: HERBAB IC50
T2 construct: expressed in transfected cells; host or cells: CHO-K1 cells
T2 sequence (P24530 27-442): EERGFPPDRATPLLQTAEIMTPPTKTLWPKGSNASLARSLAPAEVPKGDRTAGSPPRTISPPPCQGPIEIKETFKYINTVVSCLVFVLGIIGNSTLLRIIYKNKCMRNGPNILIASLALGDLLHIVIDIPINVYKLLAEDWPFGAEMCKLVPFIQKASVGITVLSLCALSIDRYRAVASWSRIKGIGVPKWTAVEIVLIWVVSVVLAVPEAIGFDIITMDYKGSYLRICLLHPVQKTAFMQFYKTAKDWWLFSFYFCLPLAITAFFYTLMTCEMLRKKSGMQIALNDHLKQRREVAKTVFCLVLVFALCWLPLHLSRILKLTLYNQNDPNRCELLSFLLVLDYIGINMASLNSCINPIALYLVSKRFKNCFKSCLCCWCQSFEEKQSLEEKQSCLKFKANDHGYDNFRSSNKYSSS
Method: as §1, §2, §3, §4

ETA [1] = biological target: T3, ETA (Oryctolagus cuniculus, UniProt A5A8K3); experiment: AAR: inhibition of ET-1 stimulated arachidonic acid release in cultured rabbit renal artery vascular smooth muscle cells; format: cell-based; conditions: 0.3 nM ET-1, 30 minutes
T3 construct: cultured rabbit renal artery vascular smooth muscle cells; endogenous in cells; host or cells: cultured rabbit renal artery vascular smooth muscle cells
T3 sequence (A5A8K3 21-427): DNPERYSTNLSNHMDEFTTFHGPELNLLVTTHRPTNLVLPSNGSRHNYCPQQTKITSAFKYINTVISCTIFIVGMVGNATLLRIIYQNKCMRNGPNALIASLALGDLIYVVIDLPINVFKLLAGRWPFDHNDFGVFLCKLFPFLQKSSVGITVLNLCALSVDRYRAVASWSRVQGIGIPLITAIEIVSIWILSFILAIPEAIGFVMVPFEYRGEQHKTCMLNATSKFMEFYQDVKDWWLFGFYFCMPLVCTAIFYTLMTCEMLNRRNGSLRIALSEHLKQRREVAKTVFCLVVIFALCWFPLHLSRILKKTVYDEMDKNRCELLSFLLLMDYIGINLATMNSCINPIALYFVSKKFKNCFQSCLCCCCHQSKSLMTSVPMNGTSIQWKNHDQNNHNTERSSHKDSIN
Excerpt: as §1

ETA [2] = biological target: T3, ETA; experiment: VERA-A: antagonism of ET-1 stimulated vasoconstriction in the rabbit femoral artery; conditions: rabbit femoral artery rings, antagonist added 30 minutes before ET-1; read-out: VERAA pA2 (converted)

Compound | IC50 (recombinant human ETA R) [µM] | IC50 (recombinant human ETB R) [µM] | IC50 (ETA [1]) [µM] | Kb (ETA [2]) [µM]
COc1ccc(CN2C(C(=O)O)=C(c3ccc4c(c3)OCO4)c3ccccc3S2(=O)=O)c(OCC(=O)O)c1 [Example 30, 4-Benzo[1,3]dioxol-5-yl-2-(2-carboxymethoxy-4-methoxybenzyl)-1,1-dioxo-1,2-dihydro-1λ^6-benzo[e][1,2]thiazine-3-carboxylic acid] | 1.8 | 4.9 | – | –
COc1ccc(C2=C(C(=O)O)N(Cc3ccc4c(c3)OCO4)S(=O)(=O)c3ccccc32)cc1OC [Example 33, 2-Benzo[1,3]dioxol-5-ylmethyl-4-(3,4-dimethoxy-phenyl)-1,1-dioxo-1,2-dihydro-1λ^6-benzo[e][1,2]thiazine-3-carboxylic acid] | 0.72 | 3.6 | – | –
O=C(NS(=O)(=O)c1ccccc1)C1=C(c2ccc3c(c2)OCO3)c2ccccc2S(=O)(=O)N1Cc1ccc2c(c1)OCO2 [Example 35, N-(4-Benzo[1,3]dioxo-5-yl-2-benzo[1,3]dioxol-5-ylmethyl-1,1-dioxo-1,2-dihydro-1λ^6-benzo[e][1,2]thiazine-3-carbonyl)-benzenesulfonamide] | 3 | > 25 | – | –
CN1C(C(=O)O)=C(Sc2ccc3c(c2)OCO3)c2ccccc2S1(=O)=O [Example 41, 4-(benzo[1,3]dioxol-5-ylsulfanyl)-2-methyl-1,1-dioxo-1,2-dihydro-1λ^6-benzo[e][1,2]thiazine-3-carboxylic acid] | 0.1 | 25 | – | –
O=C(O)C1=C(Sc2ccc3c(c2)OCO3)c2ccccc2S(=O)(=O)N1Cc1ccccc1 [Example 43, 4-(benzo[1,3]dioxol-5-ylsulfanyl)-2-benzyl-1,1-dioxo-1,2-dihydro-1λ^6-benzo[e][1,2]thiazine-3-carboxylic acid] | 0.12 | 12 | – | –
COc1ccc(CN2C(C(=O)O)=C(Sc3ccc4c(c3)OCO4)c3ccccc3S2(=O)=O)cc1 [Example 44, 4-(benzo[1,3]dioxol-5-ylsulfanyl)-2-(4-methoxy-benzyl)-1,1-dioxo-1,2-dihydro-1λ^6-benzo[e][1,2]thiazine-3-carboxylic acid] | 0.4 | 2.3 | – | –
COc1cc(CN2C(C(=O)O)=C(Sc3ccc4c(c3)OCO4)c3ccccc3S2(=O)=O)cc(OC)c1OC [Example 45, 4-(benzo[1,3]dioxol-5-ylsulfanyl)-2-(3,4,5-trimethoxy-benzyl)-1,1-dioxo-1,2-dihydro-1λ^6-benzo[e][1,2]thiazine-3-carboxylic acid] | 0.2 | 12 | – | –
COc1cccc(SC2=C(C(=O)O)N(Cc3ccc4c(c3)OCO4)S(=O)(=O)c3ccccc32)c1 [Example 49, 2-Benzo[1,3]dioxol-5-ylmethyl-4-(3-methoxyphenylsulfanyl)-1,1-dioxo-1,2-dihydro-1λ^6-benzo[e][1,2]thiazine-3-carboxylic acid] | 0.51 | 8.7 | – | –

Further compounds by falling IC50 (recombinant human ETA R), results first:

IC50 (recombinant human ETA R) [µM] | IC50 (recombinant human ETB R) [µM] | IC50 (ETA [1]) [µM] | Kb (ETA [2]) [µM] | Compound
11 | > 25 | – | – | COc1cc(C2=C(C(=O)O)N(Cc3ccc4c(c3)OCO4)S(=O)(=O)c3ccccc32)cc(OC)c1OC [Example 24, 2-Benzo[1,3]dioxol-5-ylmethyl-1,1-dioxo-4-(3,4,5-trimethoxyphenyl)-1,2-dihydro-1λ^6-benzo[e][1,2]thiazine-3-carboxylic acid]
1.7 | > 25 | – | – | CN1C(C(=O)O)=C(c2ccc3c(c2)OCO3)c2ccccc2S1(=O)=O [Example 25, 4-Benzo[1,3]dioxol-5-yl-2-methyl-1,1-dioxo-1,2-dihydro-1λ^6-benzo[e][1,2]thiazine-3-carboxylic acid]
0.51 | 22 | – | – | O=C(O)C1=C(Sc2ccc3c(c2)OCO3)c2ccccc2S(=O)(=O)N1Cc1cc2c(cc1Cl)OCO2 [Example 46, 4-(Benzo[1,3]dioxol-5-ylsulfanyl)-2-(6-chloro-benzo[1,3]dioxol-5-ylmethyl)-1,1-dioxo-1,2-dihydro-1λ^6-benzo[e][1,2]thiazine-3-carboxylic acid]
0.3 | 3.1 | – | – | O=C(O)C1=C(c2ccc3c(c2)OCO3)c2ccccc2S(=O)(=O)N1Cc1ccc2c(c1)OCO2 [Example 26, 4-Benzo[1,3]dioxol-5-yl-2-benzo[1,3]dioxol-5-ylmethyl-1,1-dioxo-1,2-dihydro-1λ^6-benzo[e][1,2]thiazine-3-carboxylic acid]
0.3 | 4.7 | – | – | COc1cc(CN2C(C(=O)O)=C(c3ccc4c(c3)OCO4)c3ccccc3S2(=O)=O)cc2c1OCO2 [Example 32, 4-Benzo[1,3]dioxol-5-yl-2-(7-methoxy-benzo[1,3]dioxol-5-ylmethyl)-1,1-dioxo-1,2-dihydro-1λ^6-benzo[e][1,2]thiazine-3-carboxylic acid]
0.3 | 3.5 | – | – | COc1cc2c(cc1OC)S(=O)(=O)N(Cc1ccc3c(c1)OCO3)C(C(=O)O)=C2Sc1ccc2c(c1)OCO2 [Example 50, 2-Benzo[1,3]dioxol-5-ylmethyl-4-(benzo[1,3]dioxol-5-ylsulfanyl)-6,7-dimethoxy-1,1-dioxo-1,1-dihydro-1λ^6-benzo[e][1,2]thiazine-3-carboxylic acid]
0.23 | 8.2 | – | – | COc1ccc(SC2=C(C(=O)O)N(Cc3ccc4c(c3)OCO4)S(=O)(=O)c3ccccc32)cc1OC [Example 48, 2-Benzo[1,3]dioxol-5-ylmethyl-4-(3,4-dimethoxyphenylsulfanyl)-1,1-dioxo-1,2-dihydro-1λ^6-benzo[e][1,2]thiazine-3-carboxylic acid]
0.17 | 4.7 | – | – | COc1cc(CN2C(C(=O)O)=C(c3ccc4c(c3)OCO4)c3ccccc3S2(=O)=O)cc(OC)c1OC [Example 29, 4-Benzo[1,3]dioxol-5-yl-1,1-dioxo-2-(3,4,5-trimethoxybenzyl)-1,2-dihydro-1λ^6-benzo[e][1,2]thiazine-3-carboxylic acid]
0.16 | 4.6 | – | – | O=C(O)C1=C(c2ccc3c(c2)OCO3)c2ccccc2S(=O)(=O)N1Cc1ccccc1 [Example 27, 4-Benzo[1,3]dioxol-5-yl-2-benzyl-1,1-dioxo-1,2-dihydro-1λ^6-benzo[e][1,2]thiazine-3-carboxylic acid]
0.066 | 5.4 | 1.2 | > 10 | O=C(O)C1=C(Sc2ccc3c(c2)OCO3)c2ccccc2S(=O)(=O)N1Cc1ccc2c(c1)OCO2 [Example 42, 2-Benzo[1,3]dioxol-5-ylmethyl-4-(benzo[1,3]dioxol-5-ylsulfanyl)-1,1-dioxo-1,2-dihydro-1λ^6-benzo[e][1,2]thiazine-3-carboxylic acid]
0.055 | 0.38 | 1.3 | – | O=C(O)C1=C(c2ccc3c(c2)OCO3)c2ccccc2S(=O)(=O)N1Cc1cc2c(cc1Cl)OCO2 [Example 31, 4-Benzo[1,3]dioxol-5-yl-2-(6-chloro-benzo[1,3]dioxol-5-ylmethyl)-1,1-dioxo-1,2-dihydro-1λ^6-benzo[e][1,2]thiazine-3-carboxylic acid]
